In patent US20220411448A1, “CHROMENE-4-ONE DERIVATIVES AS BRAIN-DERIVED NEUROTROPHIC FACTOR (BDNF) MIMETICS” (FLORATEK PHARMA AG, priority 2019, published 2022):

How the values were obtained:
[1] = test system: human hepatocytes from pooled donor lot; test: Hepatic toxicity: cytotoxicity by LDH leakage; type: cell-based; details: 1 to 100 μM, 24 h exposure
Protocol: (§1) Cryopreserved human hepatocytes from pooled donor lot (Bioreclamation IVT) were seeded on collagen I coated 96-well plates (Corning Biocoat) at 0.55×10^5 cells per well in 120 μl InVitroGRO™ CP medium (BioIVT), including additives Torpedo Antibiotic mix (BioIVT). After cell attachment (4-6 hours post seeding) cell culture medium was replaced with fresh medium and incubated for 72 hours at 37° C. under 5% CO2. Thereafter, hepatocytes were exposed to test or control compounds in 100 μl of InVitroGRO™ HI medium, including additives Torpedo Antibiotic mix at concentrations presented below. Cytotoxicity and cell viability were evaluated based on LDH release in medium and ATP content in the cells after 24 hours exposure phase.
(§2) Cytotoxicity potency of test compounds SND118, SND121, SND122 and SND123 was assayed in human hepatocytes from pooled donor lot at three concentrations; 1, 10 and 100 μM. Cytotoxicity was assayed from medium samples after 24 h exposure period with test compounds by measuring membrane integrity (LDH leakage), coupled to fluorescent signal. In parallel, cell viability was assayed by the means of ATP content, indicating the metabolically competent cell activity. LDH and ATP assay kits were sourced from Promega. ATP content was measured based on luciferase catalysed reaction generating stable bioluminescent signal. […]

TNF-α = test: LPS stimulation of BV-2 microglia: TNF-α; type: cell-based, murine; details: between 0.3 and 3 μM, BV2, LPS 500 ng/ml, 24 h
Protocol: The murine microglial cell line BV-2 was grown in DMEM medium supplemented with 10% FCS, 1% penicillin/streptomycin and 2 mM L-glutamine (culture medium). For LPS stimulation assay, 10000 BV-2 cells per well (uncoated 96 well plates) were plated and after 24 hours, medium was changed to serum-free treatment medium (DMEM, 2 mM L-glutamine) and cells were maintained in treatment medium for the remaining culture period. 1 h after changing cells to treatment medium, the test items were added 1 hour before LPS stimulation (Sigma-Aldrich; L6529; 1 mg/ml stock in ddH2O, final concentration in well: 500 ng/ml (dilutions in medium)). Cells treated with vehicle, cells treated with LPS alone, as well as cells treated with LPS plus reference dexamethasone at 10 μM item served as controls.
Following 24 h of stimulation, cell supernatants were collected for the NO, and cytokine measurements. Levels of 2 cytokines (TNF-α, IL-6) were measured by an immunosorbent assay (U-PLEX Custom […] Cytokine, Mesoscale Discovery) according to the instructions of the manufacturer and evaluated in comparison to calibration curves provided in the kit. […] Absorbance was measured at 570 nm. Nitrosative stress was evaluated in the study samples in comparison to a NaNO2 standard curve. […]

[2] = test system: human hepatocytes from pooled donor lot; test: Hepatic toxicity: cell viability by ATP content; type: cell-based; details: 1 to 100 μM, 24 h exposure
Protocol: as §1, §2

[3] = Metabolic stability in mouse liver microsomes; type: in vitro ADME; details: male, CD1, mouse, pooled liver microsomes, pH 7.4, 0.5 mg/ml protein, read-out: T1/2 LM mouse
Protocol: Sample type: pooled liver or intestine microsomes; Species: CD1-mouse (male), human (mixed gender) Time points: 0, 10, 20, 40, 60 min cofactors, and negative control;
Protein content: 0.5 mg/ml: Replicates: 2 with cofactors, 1 without cofactors; Cofactors: NADPH (1 mM)+UDPGA (1 mM)+15 μg/ml alamethicin Buffer: 0.1 M phosphate buffer pH 7.4, 2 mM MgCl2; Spiking solvent: 50% DMSO ( 1/100 to incubation); Quenching solvent: 2-fold volume of 75% ACN, Control: midazolam disappearance rate
The study compounds were incubated with liver or intestine microsomes as specified above. The collected samples were stored at −20 C until thawed at room temperature, centrifuged and analyzed as presented below.
The samples were analysed by UPLC/HR-MS (with data dependent MS/MS mode) to monitor substrate depletion (and later optionally metabolite formation). The analytical method was optimised by using the parent compound for optimum chromatographic properties (peak shape and retention) and mass spectrometric ionisation. Disappearance rate of the study compound was estimated based on relative LC/MS peak areas (o min marked as 100%), and was used to calculate in vitro half-life and clearance (and in vivo extrapolation of hepatic clearance).

[4] = test system: primary brain cell cultures; test: NAD/NADH cycling assay; type: cell-based, mouse; details: after 30 min in the presence of the compound
Protocol: Cycling assays for nicotinamide adenine dinucleotides was performed as described [Yang J, et al, Lactate promotes plasticity gene expression by potentiating NMDA signaling in neurons. Proc Natl Acad Sci USA. 2014. 111(33):12228-33]. Briefly, cells were rinsed two times with ice-cold PBS, harvested in 400 μL ice-cold carbonate-bicarbonate buffer (100 mM Na2CO3 and 20 mM NaHCO3 containing 10 mM nicotinamide to inhibit NADase), and frozen at −80° C. Cell membranes were lysed by heat shock in a 37° C. water bath and immediately chilled on ice. Extracts were centrifuged at 12,000×g for 30 min at 4° C. and half of the supernatant was heated at 60° C. for 30 min to denature NAD. Twenty-five microliters of the heated extract (containing NADH only), 100 μL of the unheated extract (containing NAD and NADH), and 50 μL of standards of known NADH (Roche) concentrations (ranging from 0.0625 to 1 μM) dissolved in carbonate bicarbonate buffer were loaded onto a 96-well microplate along with blanks (carbonate-bicarbonate buffer). Volumes were adjusted to 100 μL with carbonate-bicarbonate buffer and 150 μL of a reaction buffer was added into each well. […] The absorbance was followed spectrophotometrically at 560 nm every 15 s over a 5-min period (Safire 2; Tecan). Blank values were subtracted from all samples and NAD amounts were calculated by subtracting NADH values from total NAD+NADH values.

SMILES: O=c1cc(-c2ccc(CCCC[P+](c3ccccc3)(c3ccccc3)c3ccccc3)cc2)oc2c(O)c(O)ccc12 [SND118, 4-[4-(7,8-dihydroxy-4-oxo-chromen-2-yl)phenyl]butyltriphenylphosphonium bromide]
- Cytotoxicity (LDH leakage) [1]: 7-10%
- level of TNF-α in response to LPS stimulation (TNF-α): significantly decreased
- ATP content (cell viability) [2]: 72-103%
- half-life at 1 μM [3]: 23 min
- production of NADH (NAD/NADH ratio) [4]: increased production of ATP and NADH
